From paper PMC10606064, “2-Aminothiazole-Flavonoid Hybrid Derivatives Binding to Tau Protein and Responsible for Antitumor Activity in Glioblastoma” (International Journal of Molecular Sciences, 2023)

Columns and labels:
U87 glioblastoma cells = experiment: MTT cell viability assay, U87; format: cell-based, human; details: for IC50: Homo sapiens, U87, 72 h, MTT, mean ± SEM, read-out: IC50 (metabolic activity)
Method: (§1) Cells harvested from sub-confluent monolayers were seeded at 15,000 cells per mL in a 96-well microtiter plate (Cambridge Technology, Labège, France) and cultured for 24 h under standard conditions. Standard medium was then replaced by fresh medium containing no drugs or compounds at different concentrations. The surviving cells were quantified after 72 h by the MTT assay, according to the manufacturer’s instructions. Briefly, 20 µL of 3-(4,5-diMethylThiazol-2-yl)-2,5diphenyl Tetrazolium bromide (MTT) solution at 5 mg.mL^−1 was added to cells for 3 h at 37 °C. The supernatant was discarded and replaced by 100 µL of dimethyl sulfoxide to dissolve formazan crystals. The absorbance was then read at 600 nm by spectrophotometry. For all concentrations of a given compound, cell viability was expressed as the percentage of the ratio between the mean absorbance of treated cells and the mean absorbance of untreated cells. Three independent experiments were performed, and the data were expressed as percentage of survival (using the untreated cells as 100%) and subjected to statistical analysis (n = 3). The IC50 was calculated using the Chou and Talalay method.

[1] = tested on: Caco-2 colon adenocarcinoma cells; experiment: MTT cell viability assay, Caco-2; format: cell-based; details: Homo sapiens, Caco-2 (not expressing Tau), 72 h, mean ± SEM, read-out: IC50 (metabolic activity)
Method: as §1

U87 shCTRL cells = experiment: Mitotic index by high-content imaging, U87 shCTRL; format: cell-based, human; details: 48 h, 5-times IC50 of compounds
Method: For scoring mitotic indexes, an automated high-content screening confocal microscopy approach was employed to identify cells undergoing mitosis from a large population of cells. For this, cells nuclei were stained with DAPI. Briefly, fibronectin-coated clear-glass-bottom black 96-well imaging plates were seeded with 100 µL of cell suspension (60,000 cell.mL^−1) in each well, with both U87 shCTRL and U87 ShTau cell lines. Cells were treated with 5-times IC50 of compounds for 48 h, then they were fixated inside the palates with 4% formaldehyde (in PBS pH 7.4) for 20 min at room temperature, permeabilized with PBS-Triton X-100 0.5% for 10 min at room temperature. DNA was then stained with DAPI (10 µg.mL^−1) for 5 min at room temperature and in the darkness. After being washed, cells were kept in PBS at 4 °C and imaged while in PBS. Automated confocal microscopy was carried out using an Opera Phenix (PerkinElmer) high-content screening microscope using a 20× Air/0.4 NA air objective. For each condition, 6 wells were prepared and a total of 61 fields were acquired for each well. Image analysis was performed using Harmony high-content analysis v4.8 software and PhenoLOGIC Machine Learning technology, which uses a learn-by-example approach. As a first step, nuclei were segmented and multiple parameters for these nuclei were calculated using Harmony v4.8 software building blocks. After training, PhenoLOGIC Machine Learning then selects the best parameters to detect nuclei undergoing the M phase of mitosis. From this, the mitotic index of each condition was calculated by dividing the number of cells undergoing mitosis over the total number of cells.

[2] = tested on: U87 shCTRL and U87 shTau cells; experiment: Acridine orange spectrofluorometry (late autophagy); format: cell-based, human; details: both cell types, 5 µM, 48 h
Method: Briefly, 2.10^5 cells in exponential growth were seeded in 6-well plates. After 24 h, they were treated with 5 µM of compounds for 48 h. Trypsinized cells were harvested, counted, and then centrifuged (1200 rpm, 5 min, at RT). The cells pellet was resuspended in 2 mL of acridine orange diluted in complete culture media to a final concentration of 1 µg/mL and incubated for 15 min in the dark. Cells were then collected by centrifugation (1200 rpm, 5 min, at RT). The cells pellet was resuspended in PBS to a suspension concentration of 2.10^5 cells/mL. The suspension was transferred to a quartz cuvette, and then fluorescence emission of acridine orange was measured with a FluoroMax-3 spectrofluorometer (Horiba Jobin Yvon, Palaisseau, France) (excitation at 490 nm).

| IC50 (U87 glioblastoma cells) [µM] | IC50 [1] [µM] | IC50 value fold lower than 1 (U87 glioblastoma cells; U87 cell line) | Structure (SMILES) | mitotic index (U87 shCTRL cells) | acridine orange fluorescence emission [2] |
| --- | --- | --- | --- | --- | --- |
| > 100 | > 100 | – | Nc1nc2ccc3oc(C(=O)O)cc(=O)c3c2s1 [Compound 5] | 2.47 ± 0.19% | shift to blue emission |
| 1.9 ± 0.7 | > 100 | up to 10 fold | Nc1nc2ccc3oc(-c4cccc(Oc5ccccc5)c4)cc(=O)c3c2s1 [Compound 2, 2-amino-7-(3-phenoxyphenyl)-9H-chromeno [6,5-d]thiazol-9-one] | no significant variation of mitotic indexes | shift to blue emission |
